Laboratory results as given in paper PMC7308271, “Discovery of a new class of orthosteric antagonists with nanomolar potency at extrasynaptic GABAA receptors” (Scientific Reports, 2020).
“And” between values parts separate entries of the source, which are not always exact repeats. Equal entries are not always repeated. Where two headings read alike, the source gives them in different places. Each block holds one compound with its values, some of them ahead of it.

What was measured:
Format in all cases: cell-based
[1] = molecular target: T1, human α1β2γ2 GABAΑ receptor (Homo sapiens, UniProt P14867+P47870); test: FMP assay at α1β2γ2 GABAA receptors in HEK cells
T1 construct: expressed in transfected cells; host or cells: HEK293 line stably expressing α1β2γ2 (gift from Marianne L. Jensen, Neurosearch)
Experimental: (§1) HEK293 cells were maintained in DMEM containing GlutaMAX-I, supplemented with 10% FBS and 1% penicillin-streptomycin and incubated at 37 °C and a humidity of 5% CO2. For expression of δ-containing GABAΑ receptors, a HEK293 Flp-In^ΤΜ cell line stably expressing the human GABAΑ δ-subunits (referred to as δ-HEK) was used and the γ-containing subtypes was expressed in a background HEK293 Flp-In^ΤΜ cell line stably expressing the G-protein coupled peptide receptor NPBWR2 (referred to as HEK background)[26], both positively selected for using 200 μg/mL hygromycin B. α1β2γ2 receptors were stably expressed in a HEK293 cell line maintained as above but with no selection (gift from Marianne L. Jensen, Neurosearch).
(§2) To express recombinant GABAΑ receptors human α1, α2, α3, α5, α6, β2, γ2 (pcDNA3.1/Zeo) and α4, β1 (pUNIV)[26] subunit cDNA were transiently transfected into either δ-HEK or HEK background cells. δ-HEK cells were transfected with α- and β-subunits in a 1:1 ration whereas HEK background cells were transfected with α-, β- and γ-subunits in a 1:1:2 ratio. Human BGT1 (pcDNA5/FRT)[43] was transiently transfected into the δ-HEK cell line. δ-HEK cells transfected for whole-cell patch-clamp recordings were co-transfected with green fluorescent protein (GFP) as well as α- and β-subunits in a 0.5:1:1 ratio (0.8 μg + 1.6 μg + 1.6 μg in a 6 cm dish) in order to identify transfected cells. The transfection was carried out using Polyfect as transfection reagent according to the manufactures protocol expect for using half the recommended volume of Polyfect.
(§3) The FMP assay was performed as previously described with a few modifications. […] Data was obtained as changes in fluorescence units (∆RFU) by measuring emission at 560 nm caused by excitation at 530 nm. […]
(§4) Data obtained in the FMP assay are given as relative changes in fluorescence units (ΔRFU) by subtracting the average of the baseline fluorescence signal from the peak fluorescence signal after compound addition. […]

[2] = molecular target: T2, human α4β2δ GABAΑ receptor (Homo sapiens, UniProt P47870+P48169); test: FMP assay at α4β2δ GABAA receptors in HEK cells
T2 construct: expressed in transfected cells; host or cells: δ-HEK (HEK293 Flp-In stably expressing human δ), transiently transfected with α and β 1:1
T2 sequence (P48169 36-554): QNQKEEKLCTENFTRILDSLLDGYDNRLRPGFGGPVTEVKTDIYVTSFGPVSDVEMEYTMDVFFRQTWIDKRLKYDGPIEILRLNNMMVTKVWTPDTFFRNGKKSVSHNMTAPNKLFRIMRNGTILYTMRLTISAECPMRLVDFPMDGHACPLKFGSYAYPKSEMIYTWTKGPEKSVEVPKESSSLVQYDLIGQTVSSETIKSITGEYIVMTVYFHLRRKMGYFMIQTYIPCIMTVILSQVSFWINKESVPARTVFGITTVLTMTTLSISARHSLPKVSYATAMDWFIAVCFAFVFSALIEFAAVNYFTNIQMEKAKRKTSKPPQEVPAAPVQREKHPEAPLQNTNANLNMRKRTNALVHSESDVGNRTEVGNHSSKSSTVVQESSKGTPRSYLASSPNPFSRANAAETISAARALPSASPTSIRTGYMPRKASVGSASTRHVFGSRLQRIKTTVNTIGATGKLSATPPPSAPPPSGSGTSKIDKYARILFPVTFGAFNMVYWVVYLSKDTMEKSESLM
T2 sequence (P47870 25-512 limits assumed): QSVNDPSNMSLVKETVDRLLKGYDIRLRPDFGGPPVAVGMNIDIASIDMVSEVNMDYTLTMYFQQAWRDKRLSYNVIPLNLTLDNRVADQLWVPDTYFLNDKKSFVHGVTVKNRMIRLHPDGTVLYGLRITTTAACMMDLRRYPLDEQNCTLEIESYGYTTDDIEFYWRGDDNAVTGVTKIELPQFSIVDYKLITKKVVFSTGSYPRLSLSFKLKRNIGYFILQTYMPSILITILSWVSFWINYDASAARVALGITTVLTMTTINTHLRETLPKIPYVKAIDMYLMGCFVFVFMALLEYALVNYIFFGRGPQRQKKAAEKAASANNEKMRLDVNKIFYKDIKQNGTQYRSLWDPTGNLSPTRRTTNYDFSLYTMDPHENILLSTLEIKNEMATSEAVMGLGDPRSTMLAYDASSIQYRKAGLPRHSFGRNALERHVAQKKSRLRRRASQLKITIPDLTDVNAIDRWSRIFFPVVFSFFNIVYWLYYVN
T2 sequence (O14764 25-452 partner): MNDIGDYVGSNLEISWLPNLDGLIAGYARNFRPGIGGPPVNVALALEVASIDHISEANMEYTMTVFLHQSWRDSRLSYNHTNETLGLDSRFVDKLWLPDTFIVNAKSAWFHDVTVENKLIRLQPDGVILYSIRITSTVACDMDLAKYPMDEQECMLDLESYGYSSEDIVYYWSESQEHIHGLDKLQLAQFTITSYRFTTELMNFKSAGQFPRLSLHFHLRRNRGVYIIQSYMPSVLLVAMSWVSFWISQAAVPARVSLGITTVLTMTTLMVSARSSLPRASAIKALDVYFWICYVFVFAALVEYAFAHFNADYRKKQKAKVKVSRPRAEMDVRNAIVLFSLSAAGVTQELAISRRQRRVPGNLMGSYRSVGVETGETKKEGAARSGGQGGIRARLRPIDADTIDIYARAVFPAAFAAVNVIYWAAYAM
Experimental: as §1, §2
(§5) The FMP assay was performed as previously described with a few modifications. Briefly, HEK cells were transfected as described[26] and 16–20 hours later plated (50,000 cells/well in DMEM medium) into clear-bottomed black 96-well plates coated with poly-D-lysine and the assay performed 20–28 hours later. The assay protocol including the FMP blue dye incorporation into membranes was exactly as described in Falk-Petersen et al.[26]. […] Data was obtained as changes in fluorescence units (∆RFU) by measuring emission at 560 nm caused by excitation at 530 nm. Unless otherwise mentioned in the text or figure legends experiments were performed in at least three independent experiments each using three technical replicates. Due to an observed edge effect for the FMP assay, outer wells were not used except for the screening.
as §4, with “addition. All raw traces were inspected manually and peak signals resulting from compound/buffer addition together with signal artefacts were omitted from the analysis.” for “addition.”

[3] = molecular target: T3, human α6β2δ GABAΑ receptor (Homo sapiens, UniProt P47870+Q16445); test: FMP assay at α6β2δ GABAA receptors in HEK cells
T3 construct: expressed in transfected cells; host or cells: δ-HEK (HEK293 Flp-In stably expressing human δ), transiently transfected with α and β 1:1
T3 sequence (Q16445 20-453): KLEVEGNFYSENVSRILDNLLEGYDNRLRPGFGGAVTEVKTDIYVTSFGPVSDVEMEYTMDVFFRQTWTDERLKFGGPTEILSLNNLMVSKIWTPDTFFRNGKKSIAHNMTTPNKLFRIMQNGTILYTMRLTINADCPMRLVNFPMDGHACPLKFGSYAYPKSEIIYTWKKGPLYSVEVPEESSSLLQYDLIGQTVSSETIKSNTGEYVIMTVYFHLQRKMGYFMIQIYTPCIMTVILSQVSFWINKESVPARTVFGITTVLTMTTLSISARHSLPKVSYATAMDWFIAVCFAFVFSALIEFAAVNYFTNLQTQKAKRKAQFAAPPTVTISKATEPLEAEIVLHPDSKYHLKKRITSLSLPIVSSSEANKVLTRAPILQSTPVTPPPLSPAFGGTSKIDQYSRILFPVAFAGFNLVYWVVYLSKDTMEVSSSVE
T3 sequence (P47870 25-512 limits assumed): as the sequence (P47870 25-512 limits assumed) above
T3 sequence (O14764 25-452 partner): as the sequence (O14764 25-452 partner) above
Experimental: as §1, §2, §3, §4

[4] = molecular target: T4, human α2β2γ2 GABAΑ receptor (Homo sapiens, UniProt P47869+P47870); test: FMP assay at α2β2γ2 GABAA receptors in HEK cells
T4 construct: expressed in transfected cells; host or cells: HEK background (HEK293 Flp-In stably expressing NPBWR2), transient α:β:γ 1:1:2
T4 sequence (P47869 29-451): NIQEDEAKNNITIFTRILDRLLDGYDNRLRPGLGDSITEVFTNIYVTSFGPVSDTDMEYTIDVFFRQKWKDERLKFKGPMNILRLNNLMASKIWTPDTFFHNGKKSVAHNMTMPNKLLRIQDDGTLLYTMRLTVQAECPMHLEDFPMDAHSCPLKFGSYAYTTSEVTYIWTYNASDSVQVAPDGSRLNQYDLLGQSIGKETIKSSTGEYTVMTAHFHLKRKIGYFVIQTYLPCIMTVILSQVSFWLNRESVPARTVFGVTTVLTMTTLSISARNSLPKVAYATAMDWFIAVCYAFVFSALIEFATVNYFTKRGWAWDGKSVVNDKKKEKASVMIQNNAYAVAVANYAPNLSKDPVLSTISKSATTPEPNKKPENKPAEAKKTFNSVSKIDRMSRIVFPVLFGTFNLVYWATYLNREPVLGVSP
T4 sequence (P47870 25-512 limits assumed): as the sequence (P47870 25-512 limits assumed) above
T4 sequence (P18507 40-475 partner): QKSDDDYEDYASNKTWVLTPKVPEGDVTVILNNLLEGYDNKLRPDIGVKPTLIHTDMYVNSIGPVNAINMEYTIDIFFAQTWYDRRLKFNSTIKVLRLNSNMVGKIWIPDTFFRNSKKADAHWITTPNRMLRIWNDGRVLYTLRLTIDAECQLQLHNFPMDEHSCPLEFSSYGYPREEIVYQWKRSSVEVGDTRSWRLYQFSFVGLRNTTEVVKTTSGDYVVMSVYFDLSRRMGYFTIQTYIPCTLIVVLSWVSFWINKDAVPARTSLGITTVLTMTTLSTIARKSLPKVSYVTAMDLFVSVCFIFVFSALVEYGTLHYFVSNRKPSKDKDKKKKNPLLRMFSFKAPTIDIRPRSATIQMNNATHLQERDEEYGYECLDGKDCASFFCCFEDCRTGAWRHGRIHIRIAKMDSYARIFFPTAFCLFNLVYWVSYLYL
Experimental: as §1, §2, §3, §4

[5] = molecular target: T5, human α5β2γ2 GABAΑ receptor (Homo sapiens, UniProt P31644+P47870); test: FMP assay at α5β2γ2 GABAA receptors in HEK cells
T5 construct: expressed in transfected cells; host or cells: HEK background (HEK293 Flp-In stably expressing NPBWR2), transient α:β:γ 1:1:2
T5 sequence (P31644 32-462): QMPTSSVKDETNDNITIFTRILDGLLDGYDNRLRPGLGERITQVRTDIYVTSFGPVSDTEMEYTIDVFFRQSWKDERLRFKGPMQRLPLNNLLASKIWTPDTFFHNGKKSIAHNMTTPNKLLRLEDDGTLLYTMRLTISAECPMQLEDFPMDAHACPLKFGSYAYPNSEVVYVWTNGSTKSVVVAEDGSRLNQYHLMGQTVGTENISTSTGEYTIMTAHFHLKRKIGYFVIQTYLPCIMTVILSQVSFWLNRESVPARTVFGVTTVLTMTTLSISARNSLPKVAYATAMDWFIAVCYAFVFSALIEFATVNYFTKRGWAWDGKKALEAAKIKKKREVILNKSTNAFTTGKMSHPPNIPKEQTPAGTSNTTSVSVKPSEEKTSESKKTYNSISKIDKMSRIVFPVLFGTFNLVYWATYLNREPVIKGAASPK
T5 sequence (P47870 25-512 limits assumed): as the sequence (P47870 25-512 limits assumed) above
T5 sequence (P18507 40-475 partner): as the sequence (P18507 40-475 partner) above
Experimental: as §1, §2, §3, §4

[6] = molecular target: T6, human α4β1γ2 GABAΑ receptor (Homo sapiens, UniProt P18505+P48169); test: FMP assay at α4β1γ2 GABAA receptors in HEK cells
T6 construct: expressed in transfected cells; host or cells: HEK background (HEK293 Flp-In stably expressing NPBWR2), transient α:β:γ 1:1:2
T6 sequence (P48169 36-554): as the sequence (P48169 36-554) above
T6 sequence (P18505 26-474): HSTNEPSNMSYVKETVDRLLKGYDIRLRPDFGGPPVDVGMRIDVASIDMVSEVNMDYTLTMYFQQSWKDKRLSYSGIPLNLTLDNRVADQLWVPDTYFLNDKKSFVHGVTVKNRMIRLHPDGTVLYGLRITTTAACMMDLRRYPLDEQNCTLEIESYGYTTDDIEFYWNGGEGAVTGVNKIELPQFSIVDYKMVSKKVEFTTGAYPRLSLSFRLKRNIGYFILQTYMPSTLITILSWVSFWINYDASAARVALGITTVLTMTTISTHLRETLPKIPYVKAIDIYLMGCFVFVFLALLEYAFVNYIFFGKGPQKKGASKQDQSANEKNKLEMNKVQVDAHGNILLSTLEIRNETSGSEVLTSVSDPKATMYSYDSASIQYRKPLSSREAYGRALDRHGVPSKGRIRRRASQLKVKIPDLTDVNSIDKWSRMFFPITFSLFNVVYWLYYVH
T6 sequence (P18507 40-475 partner): as the sequence (P18507 40-475 partner) above
Experimental: as §1, §2, §3, §4

[7] = molecular target: T7, human α3β2γ2 GABAΑ receptor (Homo sapiens, UniProt P34903+P47870); test: FMP assay at α3β2γ2 GABAA receptors in HEK cells
T7 construct: expressed in transfected cells; host or cells: HEK background (HEK293 Flp-In stably expressing NPBWR2), transient α:β:γ 1:1:2
T7 sequence (P34903 29-492): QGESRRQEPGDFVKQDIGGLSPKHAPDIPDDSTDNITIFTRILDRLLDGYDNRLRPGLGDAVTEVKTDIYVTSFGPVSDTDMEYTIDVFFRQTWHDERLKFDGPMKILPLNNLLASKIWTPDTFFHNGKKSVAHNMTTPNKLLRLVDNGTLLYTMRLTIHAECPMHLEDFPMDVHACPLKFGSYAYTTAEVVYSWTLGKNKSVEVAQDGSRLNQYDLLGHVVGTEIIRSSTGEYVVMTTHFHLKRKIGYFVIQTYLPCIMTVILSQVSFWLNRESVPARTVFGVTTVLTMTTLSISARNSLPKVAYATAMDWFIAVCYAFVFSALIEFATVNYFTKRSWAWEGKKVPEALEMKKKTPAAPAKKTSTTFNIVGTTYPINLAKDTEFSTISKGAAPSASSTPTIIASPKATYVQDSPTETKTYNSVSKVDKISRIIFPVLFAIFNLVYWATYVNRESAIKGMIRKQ
T7 sequence (P47870 25-512 limits assumed): as the sequence (P47870 25-512 limits assumed) above
T7 sequence (P18507 40-475 partner): as the sequence (P18507 40-475 partner) above
Experimental: as §1, §2, §3, §4

[8] = molecular target: T8, human α4β1δ GABAΑ receptor (Homo sapiens, UniProt P18505+P48169); test: FMP assay at α4β1δ GABAA receptors in HEK cells (screening, concentration-inhibition, Schild analysis); conditions: for IC50: vs GABA EC80 0.27–1.0 μM, mean
T8 construct: expressed in transfected cells; host or cells: δ-HEK (HEK293 Flp-In stably expressing human δ), transiently transfected with α4 and β1 1:1
T8 sequence (P48169 36-554): as the sequence (P48169 36-554) above
T8 sequence (P18505 26-474): as the sequence (P18505 26-474) above
T8 sequence (O14764 25-452 partner): as the sequence (O14764 25-452 partner) above
Excerpt: We have previously established a FLIPR membrane potential (FMP) assay to study recombinant δ-containing GABAΑRs entailing a HEK293 Flp-In cell line stably expressing the human δ-subunit which is suitable for co-transfection with any desired α/β subunits. Initially, we validated the applicability of the FMP assay for efficient compound screening in 96-well microtiter plates using the human α4β1δ GABAΑR heterologously expressed in HEK cells. This receptor was chosen as we have previously shown this system to be reliable in expressing δ-containing receptors. To this end, we determined the Z′-factor, which is a statistical factor used to measure the suitability of an assay for high throughput screening.
Thus, we went on to further characterize 2027 by making a full concentration-inhibition curve.
as §1, §2
as §5, with “replicates.” for “replicates. Due to an observed edge effect for the FMP assay, outer wells were not used except for the screening.”
Data obtained in the FMP assay are given as relative changes in fluorescence units (ΔRFU) by subtracting the average of the baseline fluorescence signal from the peak fluorescence signal after compound addition. All raw traces were inspected manually and peak signals resulting from compound/buffer addition together with signal artefacts were omitted from the analysis.
The concentration-response curves obtained in the FMP assay for both agonists (determining EC50 values) and antagonists (determining IC50 values) were fitted using the four-parameter concentration-response model: Response=bottom+top−bottom/1+10^[(logEC50-A)⋅nH] EC/IC50 values describe the concentration resulting in the half-maximal response (halfway between top and bottom), and nΗ is the Hill coefficient.

[9] = read-out: pIC50 ± SEM (converted)

IC50 [1]: 790 nM
increased potency at α4β2δ compared to α1β2γ2 ([2]; IC50 68 nM vs 790 nM): 12 times
IC50 ([2]; read-out: IC50): 68 nM
IC50 [3, 9]: 331 nM
IC50 [4, 9]: 324 nM
IC50 [5]: 51 nM
IC50 [6]: 37.2 nM
IC50 ([7]; read-out: IC50): 79 nM
Kd ([8]; Gaddum/Schild analysis, read-out: KΒ from Schild analysis): 19 nM
potency of 018 relative to 2027 ([8]; IC50 ratio): approximately 10 times
IC50 [8]: 90 nM and 88 nM
SMILES: O=C(Nc1cccc(C(=O)N2CCC3(CCNCC3)CC2)c1)c1cccs1 [compound 018, N-(3-(3,9-diazaspiro[5.5]undecane-3-carbonyl)phenyl)thiophene-2-carboxamide]

SMILES: NCCCC(=O)O [GABA]
GABA EC80 ([1]; α1β2γ2, calculated from GABA potencies): 8.0 µM
GABA EC80 ([2]; α4β2δ, calculated from GABA potencies): 0.80 to 1.0 µM
GABA EC80 ([3]; α6β2δ, calculated from GABA potencies): 3.0 µM
GABA EC80 ([4]; α2β2γ2, calculated from GABA potencies): 10 µM
GABA EC80 ([5]; α5β2γ2, calculated from GABA potencies): 3.0 µM
GABA EC80 ([6]; α4β1γ2, calculated from GABA potencies): 4.0 to 8.0 µM
GABA EC80 ([7]; α3β2γ2, calculated from GABA potencies): 10 µM
GABA EC80 ([8]; calculated from GABA potencies): 0.27 to 1.0 µM

IC50 [1]: 4960 nM
IC50 [2, 9]: 363 nM
IC50 ([3]; read-out: IC50): 4130 nM
IC50 ([4]; read-out: IC50): 2960 nM
IC50 [5]: 590 nM
IC50 [6]: 166 nM
IC50 [7, 9]: 288 nM
hit validation, antagonistic effect ([8]; 100, 50 and 10 μM in triplicates): showed antagonistic effect
inhibition at 10 µM ([8]; HEK293, read-out: inhibition of the GABA EC80 signal, primary screening, 10 μM, singlicates): > 50%
IC50 [8]: 1030 nM
SMILES: CC(=O)Nc1cccc(C(=O)N2CCC3(CCNCC3)CC2)c1 [compound 2027, N-(3-(3,9-diazaspiro[5.5]undecane-3-carbonyl)phenyl)acetamide]
